Source: patent US20060293307A1, “Oxazolidinone derivatives as antimicrobials” (priority 2002, published 2006)

Legend:
Assay in all cases: MIC, agar incorporation method
S. aureus ATCC29213 = assay type: cell-based, Staphylococcus aureus; details: Staphylococcus aureus; S. No. 2, S. aureus ATCC29213; read-out: MIC
S. aureus SG 511 = assay type: cell-based, Staphylococcus aureus; details: Staphylococcus aureus, SG511; S. No. 3, S. aureus SG 511; read-out: MIC
S. aureus (MRSA) ST450 = assay type: cell-based, Staphylococcus aureus; details: Staphylococcus aureus; S. No. 6, S. aureus (MRSA) ST450; read-out: MIC
(MRSA) 562 = assay type: cell-based, Staphylococcus aureus; details: Staphylococcus aureus; S. No. 8, (MRSA) 562; read-out: MIC
S. aureus (Smith 49951) = assay type: cell-based, Staphylococcus aureus; details: Staphylococcus aureus; S. No. 9, S. aureus (Smith 49951); read-out: MIC
[1] = tested on: S. epidermidis (MRSE)32965; assay type: cell-based, Staphylococcus epidermidis; details: Staphylococcus epidermidis; S. No. 13, S. epidermidis (MRSE)32965; read-out: MIC
S. epidermidis 358 = assay type: cell-based, Staphylococcus epidermidis; details: Staphylococcus epidermidis; S. No. 14, S. epidermidis 358; read-out: MIC
S. haemo ATCC 29970 = assay type: cell-based; details: S. No. 15, S. haemo ATCC 29970; read-out: MIC
E. faecalis 29212 = assay type: cell-based; details: Enterococcus faecalis; S. No. 17, E. faecalis 29212; read-out: MIC
E. faecalis 21777 = assay type: cell-based; details: Enterococcus faecalis; S. No. 18, E. faecalis 21777; read-out: MIC
E. faecalis SP 346 (VRE) = assay type: cell-based; details: Enterococcus faecalis; S. No. 20, E. faecalis SP 346 (VRE); read-out: MIC
E. faecium 398(VRE) = assay type: cell-based, Enterococcus faecium; details: Enterococcus faecium; S. No. 22, E. faecium 398(VRE); read-out: MIC
Salmonella 205 = assay type: cell-based; details: S. No. 26, Salmonella 205; read-out: MIC
Method: The compounds of the invention display antibacterial activity when tested by the agar incorporation method. The following minimum inhibitory concentrations (μg/ml) were obtained for representative compounds of the invention which are given below in the following tables.
Briefly, the compounds were dissolved in DMSO and doubling dilution of the compounds were incorporated into Meer Hilton agar before solidification. Inoculum was prepared by suspending 4 to 5 colonies into 5 ml of normal saline solution and adjusting the turbidity to 0.5 Macfarland turbidity standard tables (1.5×10^8 CFU/ml), after appropriate dilutions, 10^4 CFU/spot was transfered into the surface of dried plate and incubated for 18 hours (24 hours for MRSN studies). The concentration showing no growth of the inoculated culture was recorded as the MIC. Appropriate ATCC standard strains were simultaneously tested and result recorded only when the MIC's against standard antibiotics were within the acceptable range.

P. aeruginosa ATCC 27853 = assay type: cell-based; details: Pseudomonas aeruginosa, ATCC27853; S. No. 28, P. aeruginosa ATCC 27853; read-out: MIC
[2] = tested on: Serratia marcescens 12999; assay type: cell-based; details: S. No. 29, Serratia marcescens 12999; read-out: MIC
S. pneumoniae AB-2 = assay type: cell-based, Streptococcus pneumoniae; details: Streptococcus pneumoniae, AB2; S. No. 31, S. pneumoniae AB-2; read-out: MIC
S. pneumoniae AB-3 = assay type: cell-based, Streptococcus pneumoniae; details: Streptococcus pneumoniae, AB3; S. No. 32, S. pneumoniae AB-3; read-out: MIC
S. pneumoniae CS1221 = assay type: cell-based, Streptococcus pneumoniae; details: Streptococcus pneumoniae; S. No. 34, S. pneumoniae CS1221; read-out: MIC
S. pneumoniae AB 17 = assay type: cell-based, Streptococcus pneumoniae; details: Streptococcus pneumoniae, AB17; S. No. 40, S. pneumoniae AB 17; read-out: MIC
S. pneumoniae AB 22 = assay type: cell-based, Streptococcus pneumoniae; details: Streptococcus pneumoniae, AB22; S. No. 42, S. pneumoniae AB 22; read-out: MIC
S. pneumoniae CS 1687 = assay type: cell-based, Streptococcus pneumoniae; details: Streptococcus pneumoniae, CS1687; S. No. 44, S. pneumoniae CS 1687; read-out: MIC
S. pneumoniae AB 25 = assay type: cell-based, Streptococcus pneumoniae; details: Streptococcus pneumoniae, AB25; S. No. 45, S. pneumoniae AB 25; read-out: MIC
S. pneumoniae AB 29 = assay type: cell-based, Streptococcus pneumoniae; details: Streptococcus pneumoniae, AB29; S. No. 46, S. pneumoniae AB 29; read-out: MIC
S. pneumoniae AB 30 = assay type: cell-based, Streptococcus pneumoniae; details: Streptococcus pneumoniae, AB30; S. No. 47, S. pneumoniae AB 30; read-out: MIC
S. pneumoniae ATCC 49619 = assay type: cell-based, Streptococcus pneumoniae; details: Streptococcus pneumoniae, ATCC49619; S. No. 48, S. pneumoniae ATCC 49619; read-out: MIC
S. pneumoniae AB 34 = assay type: cell-based, Streptococcus pneumoniae; details: Streptococcus pneumoniae, AB34; S. No. 49, S. pneumoniae AB 34; read-out: MIC
S. pyogenes 19615 = assay type: cell-based, Streptococcus pyogenes; details: Streptococcus pyogenes; S. No. 51, S. pyogenes 19615; read-out: MIC
S. pyogenes 25147 = assay type: cell-based, Streptococcus pyogenes; details: Streptococcus pyogenes; S. No. 52, S. pyogenes 25147; read-out: MIC
S pneumoniae 1294. = assay type: cell-based, Streptococcus pneumoniae; details: Streptococcus pneumoniae; S. No. 55, S pneumoniae 1294.; read-out: MIC
S. pneumoniae 1256 = assay type: cell-based, Streptococcus pneumoniae; details: Streptococcus pneumoniae; S. No. 56, S. pneumoniae 1256; read-out: MIC
S. pneumoniae 1275 = assay type: cell-based, Streptococcus pneumoniae; details: Streptococcus pneumoniae; S. No. 57, S. pneumoniae 1275; read-out: MIC

Measured: MIC

CC(=O)NC[C@H]1CN(c2ccc(N3CCN(c4ccc([N+](=O)[O-])o4)CC3)c(F)c2)C(=O)O1 [Compound No. 4, (S)—N-[[3-[3-Fluoro-4-[4-(5-nitro-2-furyl)-1-piperazinyl]phenyl]-2-oxo-5-oxazolidinyl]methyl]acetamide]
8 µg/mL: S. aureus (MRSA) ST450 | E. faecalis 29212 | E. faecalis 21777 | E. faecalis SP 346 (VRE) | S. pneumoniae AB-2 | S. pneumoniae AB-3 | S. pneumoniae CS1221 | S. pneumoniae AB 22 | S pneumoniae 1294.
> 16 µg/mL: Salmonella 205 | P. aeruginosa ATCC 27853 | [2]
2 µg/mL: S. pneumoniae 1275
16 µg/mL: S. aureus ATCC29213 | S. aureus SG 511 | (MRSA) 562 | S. aureus (Smith 49951)
4 µg/mL: all other assays above
